Test results: patent US10406094B2, “Composition for fast dry of hair” (The Procter & Gamble Company, priority 2016, dated 2019)

Test: DVS measurement: % reduction in amount of water absorbed by treated hair
Design: % reduction in water absorbed: concentration or dose not given beside the values
Conditions: Molecular Class II
Procedure: The leave-on treatment compositions are prepared by adding the Moisture Control Materials and perfume, if needed, into a 50:50 ethanol/water carrier and stirred until complete dissolution. The solution pH is adjusted using sodium hydroxide (50% w/w) to a final pH of 4.0-4.2.
The hair is allowed to air dry and then analyzed using the DVS method described above. The experiment is repeated for a dosage of 0.50 g of solution per g of hair. The hair in this case is also assessed by expert graders, as described below, in addition to the DVS analysis.
An amount of 25-30 mg of hair with length of approximately 1 cm is weighed and hold for equilibration at 0% RH for 16 hours. After the 16-hour period, the RH is increased to 10% and maintained at this level for 6 hours. Then, the RH is increased by 10% after every 6 hours interval until it reaches 90% RH. The % reduction in amount of water absorbed is calculated as follows:
A=Amount of water absorbed by the hair treated with composition containing the Moisture Control Material
B=Amount of water absorbed by the hair treated with control composition (only carrier) containing no Moisture Control Material % reduction in amount of water absorbed=[(B−A)×100]/B

Molecule	% reduction in water absorbed
CCCCCCCCC(CO)CCCCCC (stereo not drawn) [2-Hexyl-1-decanol]	11%
O=C(OCCO)c1ccccc1O [2-Hydroxyethyl salicylate]	10%
CCOC(=O)c1cc(O)c(O)c(O)c1 [Ethyl gallate]	17%
CCCCC/C=C\C/C=C\CCCCCCCC(=O)OCC [Ethyl linoleate]	8%
CCCCCCCC/C=C\CCCCCCCC(=O)OCC(O)CO (stereo not drawn) [Glyceryl monooleate]	5%
CC(C)C(=O)O [Isobutyric acid]	5%
CCCCCCCCCCCCCC(=O)OC(C)C [Isopropyl myristate]	12%
CC(C)CCCCCCCCCCCCCCCOC(=O)CCCCCCCCCCCCCCC(C)C [Isostearyl isostearate]	11%
CCCCCCCC/C=C\CCCCCCCC(=O)O [Oleic Acid]	14%
C/C(=C\CO)CCC[C@H](C)CCC[C@H](C)CCCC(C)C [Phytol]	14%
CCCCCC[C@@H](O)C/C=C\CCCCCCCC(=O)O [Ricinoleic acid]	8.8%
Sorbitan caprylate	11%

Same assay, conditions: material at 1% wt/vol

Molecule	% Reduction in amount of water absorbed
O=C(O)c1ccc(O)cc1O [2,4-Dihydroxybenzoic acid]	30%
O=C(O)c1cc(O)c(C(=O)O)cc1O [2,5 Dihydroxyterephthalic acid]	18%
O=C(O)c1cc(O)ccc1O [2,5-Dihydroxybenzoic acid]	27%
O=C(O)c1c(O)cccc1O [2,6-Dihydroxybenzoic acid]	35%
Nc1ccccc1O [2-Aminophenol]	14%
O=C(O)c1ccc(O)c(O)c1 [3,4-Dihydroxybenzoic acid]	20%
O=C(O)c1cc(Cl)c(O)c(Cl)c1 [3,5-Dichloro-4-hydroxybenzoic acid]	15%
O=C(O)c1cc(O)cc(O)c1 [3,5-Dihydroxybenzoic acid]	15%
Nc1cccc(C(=O)O)c1 [3-Aminobenzoic acid]	12%
Nc1cccc(O)c1 [3-Aminophenol]	14%
O=C(O)c1ccc(O)c(Cl)c1 [3-Chloro-4-hydroxybenzoic acid]	11%
Cl.Nc1cccc(O)c1 [3-Hydroxyanilinium chloride]	16%
O=C(O)c1cccc(O)c1 [3-Hydroxybenzoic Acid]	20%
Nc1ccc(C(=O)O)cc1 [4-Aminobenzoic acid]	12%
Nc1ccc(O)cc1 [4-Aminophenol]	10%
O=S(=O)(O)c1ccc(O)cc1 [4-Hydroxybenzenesulphonic acid]	26%
O=C(O)c1cc(Cl)ccc1O [5-Chlorosalicylic acid]	28%
O=C(O)c1cc(O)c(O)c(O)c1 [Gallic acid]	15%
O=C(O)CNc1ccc(O)cc1 [N-4-Hydroxyphenylglycine]	15%
COc1cc(/C=C/C(=O)O)ccc1O [Trans-Ferulic Acid]	6%
O=C(O)/C=C/c1ccc(O)cc1 [p-Coumaric acid]	8.8%
